Assay results published in paper PMC5803421 (International journal of pharmaceutics, 2017).

Test system: anesthetized acute SCI female rats (bladder pressure)
Test: Isovolumetric cystometry in anesthetized acute spinal cord injured rats
Type: in vivo, rat
Details: antagonist 1 mg/kg i.v. after ODT LMN-NKA (4.6 mg/kg)

In the case of `COC1(C[S@@+]([O-])c2ccccc2)CCN(CCc2c[nH]c3ccc(F)cc23)CC1` [GR 159898], the “effect on LMN-NKA ODT mediated increase in bladder pressure” value is reported as “readily reversed”.
